Measured values published in patent US11576985B2, “Contrast imaging agent with dissolved gas-evolving fluid” (BAYER HEALTHCARE LLC, priority 2015, dated 2023).
Read-outs that look alike come from different tables or passages of the source.

Assays:
[1] = 37 C., cited from earlier work
[2] = Amount of xenon gas dissolved in water, blood and oil with increasing pressure, computed by Henry's Law; format: physicochemical
Source text: Dissolution of xenon gas in liquid, such as saline or other medical fluid, including an iodine X-ray contrast solution, provides a diagnostic contrast composition with a variety of available concentrations of xenon (mg) per mL of liquid based on a number of parameters, including pressure or presence of one or more concentration-augmenting compositions. For example, the concentration of the gas-evolving fluid in the carrier fluid may be dependent on pressure and temperature. In certain circumstances, it may be desirable to augment the concentration of the gas-evolving fluid beyond the carrying capacity of the carrier fluid at, for example, standard temperature and pressure. For example, according to Henry's Law, the amount of a gas dissolved in a liquid is proportional to the partial pressure of the gas in the volume of the liquid at a given temperature. Table 2 below uses the coefficients from Table 1 above to compute the amount of xenon gas that is dissolved in water, blood, and oil based on increasing pressure (from 1 atm to 30 atm).

[3] = rats; cited from earlier work
[4] = humans, compared with rats; cited from earlier work

Compound	bunsen constant ([1]; olive oil)	bunsen constant ([1]; seawater (*1.3 of pure water))	bunsen constant ([1]; water)	Amount of Gas Dissolved in the Liquid ([2]; blood, 1 atm) [mgmXe/ml]	Amount of Gas Dissolved in the Liquid ([2]; blood, 2 atm) [mgmXe/ml]	Amount of Gas Dissolved in the Liquid ([2]; blood, 4 atm) [mgmXe/ml]	Amount of Gas Dissolved in the Liquid ([2]; blood, 5 atm) [mgmXe/ml]	Amount of Gas Dissolved in the Liquid ([2]; blood, 30 atm) [mgmXe/ml]	Amount of Gas Dissolved in the Liquid ([2]; oil, 1 atm) [mgmXe/ml]	Amount of Gas Dissolved in the Liquid ([2]; oil, 2 atm) [mgmXe/ml]	Amount of Gas Dissolved in the Liquid ([2]; oil, 4 atm) [mgmXe/ml]	Amount of Gas Dissolved in the Liquid ([2]; oil, 5 atm) [mgmXe/ml]	Amount of Gas Dissolved in the Liquid ([2]; oil, 30 atm) [mgmXe/ml]	Amount of Gas Dissolved in the Liquid ([2]; saline, 1 atm) [mgmXe/ml]	Amount of Gas Dissolved in the Liquid ([2]; saline, 2 atm) [mgmXe/ml]	Amount of Gas Dissolved in the Liquid ([2]; saline, 4 atm) [mgmXe/ml]	Amount of Gas Dissolved in the Liquid ([2]; saline, 5 atm) [mgmXe/ml]	Amount of Gas Dissolved in the Liquid ([2]; saline, 30 atm) [mgmXe/ml]	retention half-life [3]	retention half-life [4]
[Xe] [xenon]	1.7	0.1105	0.085	0.7603	1.521	3.041	3.801	22.81	9.942	19.88	39.77	49.71	298.2589	0.4971	0.9942	1.988	2.485	14.91		
FC(F)(F)C(F)(F)C(F)(F)C(F)(F)C(F)(F)C(F)(F)C(F)(F)C(F)(F)Br [Perfluorooctylbromide]																			about 6 hours	shorter retention half-life in humans
